Data: US20170000129A1, “METHOD FOR TREATING MINERAL SLURRIES WITH A BIOCIDE” (priority 2015, published 2017)

Key:
[1] = system: bacteria from a contaminated kaolin product; assay: Kaolin slurry preservation test, challenge: on day 20 samples inoculated with ~10^5 cfu/ml bacteria from a contaminated kaolin product; type: cell-based
Experimental: (§1) In the comparative testing, dry kaolin was mixed with water to achieve a 65% solid slurry material. This material contained no biocide. The slurry was then split into 200 gram aliquots and dosed with different biocides at different concentration as shown in Tables 1-3. All samples were kept at 50° C. until the end of the testing, which was up to 28 days.
(§2) The protocol for the testing of each sample is as follows: • 1) dosed with a recorded level of biocide; • 2) mixed for 24 hours contact time and plated using standard method agar for bacterial growth; • 3) remixed daily for 1 hour and retested for bacterial growth at Day 3; • 4) remixed daily for 1 hour and retested for bacterial growth at Day 7; • 5) remixed daily for 1 hour and retested for bacterial growth at Day 14; • 6) on day 20, samples were split into two containers: one container was inoculated (or challenged) with ˜10^5 cfu/ml bacteria, the other was left “as treated”, the challenge material was obtained from a contaminated kaolin product and is assumed to be representative of the types of bacteria that are seen in the kaolin industry, and the two sets of samples were prepared for Day 21 testing; • 7) both sets were remixed daily for 1 hour and retested for bacterial growth at Day 21; and • 8) both sets remixed daily for 1 hour and retested for bacterial growth at Day 28.

[2] = system: bacterial growth in kaolin slurry; assay: Kaolin slurry preservation test: biocide-dosed 65% solids slurry plated on standard method agar, samples as treated; type: cell-based, bacteria; settings: for biocide efficacy compared with known biocides: Table 2, up to 28 days
Experimental: as §1
A number of different and known biocides were used in the study and they include glutaraldehyde (glute), 1,2 benzithiazolin-3-one (BIT), tetrahydro-3-5-methyl-2H-1,3,5-thiadizine-2-thione (thione), isothiazoline (ISO), bronopol (BNPD) or orthophenyl phenate (OPP). For shorthand purposes, the study refers to the tradename of the biocide, which is found in the above listing of the biocides. Metam sodium is designated as SMDC and MDTCMA is used without change
as §2
Different contact times were used to see how quickly the bacterial population was effected by the biocide.

For `CNC(=S)[S-].[Na+]` [42% SMDC, sodium N-methyldithiocarbamate], the “Log Red, 21 day Challenge” value ([1]; 500 ppm, Table 2) was 3, the “Log Red, 28 day Challenge” value ([1]; 500 ppm, Table 2) was 3 and the “cfu/mL, 21 day Challenge” value ([1]; 500 ppm, Table 2) was 105,000 cfu/mL. For the same compound, the “cfu/mL, 28 day Challenge” value ([1]; 500 ppm, Table 2) was 16,000 cfu/mL, the “Log Red, 21 day Challenge” value ([1]; 1000 ppm, Table 2) was 3 and the “Log Red, 28 day Challenge” value ([1]; 1000 ppm, Table 2) was 3. The “cfu/mL, 21 day Challenge” value ([1]; 1000 ppm, Table 2) was 59,000 cfu/mL, the “cfu/mL, 28 day Challenge” value ([1]; 1000 ppm, Table 2) was 16,000 cfu/mL and the “Log Red, 21 day Challenge” value ([1]; 1000 ppm, Table 3) was 2. The “Log Red, 28 day Challenge” value ([1]; 1000 ppm, Table 3) was 1, the “cfu/mL, 21 day Challenge” value ([1]; 1000 ppm, Table 3) was 384,000 cfu/mL and the “cfu/mL, 28 day Challenge” value ([1]; 1000 ppm, Table 3) was 3,000,000 cfu/mL. For the same compound, the “Log Red, 21 day Challenge” value ([1]; 1500 ppm, Table 3) was 5, the “Log Red, 28 day Challenge” value ([1]; 1500 ppm, Table 3) was 5 and the “cfu/mL, 21 day Challenge” value ([1]; 1500 ppm, Table 3) was 100 cfu/mL. The “cfu/mL, 28 day Challenge” value ([1]; 1500 ppm, Table 3) was 100 cfu/mL, the “biocide effectiveness in challenge testing” value ([1]; Table 3, challenge testing) was “comparable to thione” and the “biocide effectiveness after inoculation, overall result of the studies” value ([1]; after inoculation) was “most effective biocides”. For the same compound, the “Log Red, contact time 1 day” value ([2]; 500 ppm, Table 1) was 0, the “Log Red, contact time 3 day” value ([2]; 500 ppm, Table 1) was 1 and the “Log Red, contact time 7 day” value ([2]; 500 ppm, Table 1) was 3. For the same compound, the “cfu/mL, contact time 1 day” value ([2]; 500 ppm, Table 1) was 24,340,000 cfu/mL, the “cfu/mL, contact time 3 day” value ([2]; 500 ppm, Table 1) was 2,600,000 cfu/mL and the “cfu/mL, contact time 7 day” value ([2]; 500 ppm, Table 1) was 30,000 cfu/mL. The “performance against the BIT biocide when measuring log reduction” value ([2]; 500 ppm, Table 1) was “performed at least as well as the BIT biocide”, the “Log Red, contact time 1 day” value ([2]; 500 ppm, Table 2) was 0 and the “Log Red, contact time 3 day” value ([2]; 500 ppm, Table 2) was 2. The “Log Red, contact time 7 day” value ([2]; 500 ppm, Table 2) was 4, the “Log Red, contact time 14 day” value ([2]; 500 ppm, Table 2) was 4 and the “Log Red, contact time 21 day” value ([2]; 500 ppm, Table 2) was 5. The “Log Red, contact time 28 day” value ([2]; 500 ppm, Table 2) was 4, the “cfu/mL, contact time 1 day” value ([2]; 500 ppm, Table 2) was 19,630,000 cfu/mL and the “cfu/mL, contact time 3 day” value ([2]; 500 ppm, Table 2) was 780,002 cfu/mL. For the same compound, the “cfu/mL, contact time 7 day” value ([2]; 500 ppm, Table 2) was 4,000 cfu/mL, the “cfu/mL, contact time 14 day” value ([2]; 500 ppm, Table 2) was 3,000 cfu/mL and the “cfu/mL, contact time 21 day” value ([2]; 500 ppm, Table 2) was 1,800 cfu/mL. For the same compound, the “cfu/mL, contact time 28 day” value ([2]; 500 ppm, Table 2) was 1,800 cfu/mL, the “Log Red, contact time 1 day” value ([2]; 1000 ppm, Table 1) was 0 and the “Log Red, contact time 3 day” value ([2]; 1000 ppm, Table 1) was 1. For the same compound, the “Log Red, contact time 7 day” value ([2]; 1000 ppm, Table 1) was 5, the “cfu/mL, contact time 1 day” value ([2]; 1000 ppm, Table 1) was 16,880,000 cfu/mL and the “cfu/mL, contact time 3 day” value ([2]; 1000 ppm, Table 1) was 2,200,000 cfu/mL. For the same compound, the “cfu/mL, contact time 7 day” value ([2]; 1000 ppm, Table 1) was 1,000 cfu/mL, the “performance against the BIT biocide when measuring log reduction” value ([2]; 1000 ppm, Table 1) was “far superior” and the “Log Red, contact time 1 day” value ([2]; 1000 ppm, Table 2) was 0. The “Log Red, contact time 3 day” value ([2]; 1000 ppm, Table 2) was 4, the “Log Red, contact time 7 day” value ([2]; 1000 ppm, Table 2) was 4 and the “Log Red, contact time 14 day” value ([2]; 1000 ppm, Table 2) was 4. For the same compound, the “Log Red, contact time 21 day” value ([2]; 1000 ppm, Table 2) was 5, the “Log Red, contact time 28 day” value ([2]; 1000 ppm, Table 2) was 4 and the “cfu/mL, contact time 1 day” value ([2]; 1000 ppm, Table 2) was 12,560,000 cfu/mL. The “cfu/mL, contact time 3 day” value ([2]; 1000 ppm, Table 2) was 4,800 cfu/mL, the “cfu/mL, contact time 7 day” value ([2]; 1000 ppm, Table 2) was 2,400 cfu/mL and the “cfu/mL, contact time 14 day” value ([2]; 1000 ppm, Table 2) was 2,600 cfu/mL. For the same compound, the “cfu/mL, contact time 21 day” value ([2]; 1000 ppm, Table 2) was 900 cfu/mL, the “cfu/mL, contact time 28 day” value ([2]; 1000 ppm, Table 2) was 900 cfu/mL and the “Log Red, contact time 1 day” value ([2]; 1000 ppm, Table 3) was 3. The “Log Red, contact time 3 day” value ([2]; 1000 ppm, Table 3) was 2, the “Log Red, contact time 7 day” value ([2]; 1000 ppm, Table 3) was 2 and the “Log Red, contact time 14 day” value ([2]; 1000 ppm, Table 3) was 3. For the same compound, the “Log Red, contact time 21 day” value ([2]; 1000 ppm, Table 3) was 2, the “Log Red, contact time 28 day” value ([2]; 1000 ppm, Table 3) was 2 and the “cfu/mL, contact time 1 day” value ([2]; 1000 ppm, Table 3) was 200 cfu/mL. The “cfu/mL, contact time 3 day” value ([2]; 1000 ppm, Table 3) was 100 cfu/mL, the “cfu/mL, contact time 7 day” value ([2]; 1000 ppm, Table 3) was 100 cfu/mL and the “cfu/mL, contact time 14 day” value ([2]; 1000 ppm, Table 3) was 100 cfu/mL. The “cfu/mL, contact time 21 day” value ([2]; 1000 ppm, Table 3) was 100 cfu/mL, the “cfu/mL, contact time 28 day” value ([2]; 1000 ppm, Table 3) was 100 cfu/mL and the “Log Red, contact time 1 day” value ([2]; 1500 ppm, Table 3) was 3. For the same compound, the “Log Red, contact time 3 day” value ([2]; 1500 ppm, Table 3) was 2, the “Log Red, contact time 7 day” value ([2]; 1500 ppm, Table 3) was 2 and the “Log Red, contact time 14 day” value ([2]; 1500 ppm, Table 3) was 3. For the same compound, the “Log Red, contact time 21 day” value ([2]; 1500 ppm, Table 3) was 2, the “Log Red, contact time 28 day” value ([2]; 1500 ppm, Table 3) was 2 and the “cfu/mL, contact time 1 day” value ([2]; 1500 ppm, Table 3) was 100 cfu/mL. For the same compound, the “cfu/mL, contact time 3 day” value ([2]; 1500 ppm, Table 3) was 100 cfu/mL, the “cfu/mL, contact time 7 day” value ([2]; 1500 ppm, Table 3) was 100 cfu/mL and the “cfu/mL, contact time 14 day” value ([2]; 1500 ppm, Table 3) was 100 cfu/mL. The “cfu/mL, contact time 21 day” value ([2]; 1500 ppm, Table 3) was 100 cfu/mL, the “cfu/mL, contact time 28 day” value ([2]; 1500 ppm, Table 3) was 100 cfu/mL and the “biocide efficacy compared with known biocides” value [2] was “comparable biocide efficacy as compared to known biocides”. For the same compound, the “biocide effectiveness compared with thione” value ([2]; Table 3, up to the 28 day testing, not challenge testing, 1000 and 1500 ppm) was “performed on a par with the thione”.

In the case of `O=CCCCC=O` [50% Glute, glutaraldehyde, reference compound], the “Log Red, 21 day Challenge” value ([1]; 400 ppm, Table 2) is reported as 6, the “Log Red, 28 day Challenge” value ([1]; 400 ppm, Table 2) is reported as 5 and the “cfu/mL, 21 day Challenge” value ([1]; 400 ppm, Table 2) is reported as 100 cfu/mL. For the same compound, the “cfu/mL, 28 day Challenge” value ([1]; 400 ppm, Table 2) was 100 cfu/mL, the “Log Red, contact time 1 day” value ([2]; 400 ppm, Table 2) was 5 and the “Log Red, contact time 3 day” value ([2]; 400 ppm, Table 2) was 5. The “Log Red, contact time 7 day” value ([2]; 400 ppm, Table 2) was 6, the “Log Red, contact time 14 day” value ([2]; 400 ppm, Table 2) was 6 and the “Log Red, contact time 21 day” value ([2]; 400 ppm, Table 2) was 6. For the same compound, the “Log Red, contact time 28 day” value ([2]; 400 ppm, Table 2) was 5, the “cfu/mL, contact time 1 day” value ([2]; 400 ppm, Table 2) was 100 cfu/mL and the “cfu/mL, contact time 3 day” value ([2]; 400 ppm, Table 2) was 100 cfu/mL. The “cfu/mL, contact time 7 day” value ([2]; 400 ppm, Table 2) was 100 cfu/mL, the “cfu/mL, contact time 14 day” value ([2]; 400 ppm, Table 2) was 100 cfu/mL and the “cfu/mL, contact time 21 day” value ([2]; 400 ppm, Table 2) was 100 cfu/mL. For the same compound, the “cfu/mL, contact time 28 day” value ([2]; 400 ppm, Table 2) was 100 cfu/mL and the “biocide efficacy compared with known biocides” value [2] was “best performer”.
